≈ marks a conversion by molar mass, not a printed value.
Key:
Format in all cases: cell-based
[1] = tested on: Streptococcus pyogenes 1079; experiment: MIC, microtiter broth dilution (NCCLS M100-S14), S. pyogenes 1079 (ermB); conditions: Streptococcus pyogenes 1079
Summary of the method: (§1)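 Steps: dissolve compound in DMSO to 40 mg/ml stock; dilute in broth across microtiter trays; inoculate strains; record MIC per NCCLS M100-S14.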

[2] = tested on: Streptococcus pneumoniae 1175; conditions: Streptococcus pneumoniae 1175; microtiter broth dilution
Summary of the method: as §1

[3] = tested on: Streptococcus pneumoniae 1095; conditions: Streptococcus pneumoniae 1095; microtiter broth dilution
Summary of the method: as §1

[4] = tested on: Haemophilus influenzae 1218; experiment: MIC, microtiter broth dilution (NCCLS M100-S14), H. influenzae 1218 (susceptible); conditions: Haemophilus influenzae 1218
Summary of the method: as §1

[5] = tested on: Streptococcus pneumoniae 1016; experiment: MIC, microtiter broth dilution (NCCLS M100-S14), S. pneumoniae 1016 (susceptible); conditions: Streptococcus pneumoniae 1016
Summary of the method: as §1

SMILES | MIC S. pyogenes 1079 [1] [µg/mL] | MIC S. pneumo. 1175 [2] [µg/mL] | MIC S. pneumo. 1095 [3] [µg/mL] | MIC H. influenzae 1218 [4] [µg/mL] | MIC S. pneumo. 1016 [5] [µg/mL]
CCC1OC(=O)C(C)C(=O)C(C)C(OC2OC(C)CC(N(C)C)C2O)C(C)(OC)CC(C)C(=O)C(C)C2N(C3CN(Cc4c(OC)cnc5cccnc45)C3)C(=O)OC12C (stereo not drawn) [Example 1.101, 3-descladinosyl-11,12-dideoxy-6-O-methyl-3-oxo-12,11-(oxycarbonyl-(1-(3-methoxy-1,5-naphthyridine-4-methyl)-azetidin-3-yl)-imino)-erythromycin A] | 0.25 (≈ 0.298 µM) | <0.063 | 0.125 (≈ 0.149 µM) | 2 (≈ 2.38 µM) | <0.063
CCC1OC(=O)C(C)C(=O)C(C)C(OC2OC(C)CC(N(C)C)C2O)C(C)(OC)CC(C)C(=O)C(C)C2N(C3CN(Cc4c(OC)ccc5ncccc45)C3)C(=O)OC12C (stereo not drawn) [Example 1.102, 3-descladinosyl-11,12-dideoxy-6-O-methyl-3-oxo-12,11-(oxycarbonyl-(1-(6-methoxyquinoline-5-methyl)-azetidin-3-yl)-imino)-erythromycin A] | 1 (≈ 1.19 µM) | <0.063 | <0.063 | 2 (≈ 2.38 µM) | <0.063
CCC1OC(=O)C(C)C(=O)C(C)C(OC2OC(C)CC(N(C)C)C2O)C(C)(OC)CC(C)C(=O)C(C)C2N(C3CN(Cc4ccc(Cl)cc4Cl)C3)C(=O)OC12C (stereo not drawn) [Example 1.103, 3-descladinosyl-11,12-dideoxy-6-O-methyl-3-oxo-12,11-(oxycarbonyl-(1-(2,4-dichlorobenzene-1-methyl)-azetidin-3-yl)-imino)-erythromycin A] | 16 (≈ 19.4 µM) | 0.125 (≈ 0.151 µM) | <0.063 | 0.25 (≈ 0.302 µM) | <0.063
CCC1OC(=O)C(C)C(=O)C(C)C(OC2OC(C)CC(N(C)C)C2O)C(C)(OC)CC(C)C(=O)C(C)C2N(C3CN(Cc4ccc5c(c4)OCO5)C3)C(=O)OC12C (stereo not drawn) [Example 1.104, 3-descladinosyl-11,12-dideoxy-6-O-methyl-3-oxo-12,11-(oxycarbonyl-(1-(benzo[d][1,3]dioxole-5-methyl)-azetidin-3-yl)-imino)erythromycin A] | >64 | 0.125 (≈ 0.156 µM) | <0.063 | 0.25 (≈ 0.312 µM) | <0.063
CCC1OC(=O)C(C)C(=O)C(C)C(OC2OC(C)CC(N(C)C)C2O)C(C)(OC)CC(C)C(=O)C(C)C2N(C3CN(Cc4ccc(OC)c5nccnc45)C3)C(=O)OC12C (stereo not drawn) [Example 1.105] | 8 (≈ 9.52 µM) | 0.125 (≈ 0.149 µM) | <0.063 | 1 (≈ 1.19 µM) | <0.063
CCC1OC(=O)C(C)C(=O)C(C)C(OC2OC(C)CC(N(C)C)C2O)C(C)(OC)CC(C)C(=O)C(C)C2N(C3CN(Cc4c(Br)cnc5cccnc45)C3)C(=O)OC12C (stereo not drawn) [Example 1.106, 3-descladinosyl-11,12-dideoxy-6-O-methyl-3-oxo-12,11-(oxycarbonyl-(1-(3-bromo-1,5-naphthyridine-4-methyl)-azetidin-3-yl)-imino)-erythromycin A] | 0.25 (≈ 0.281 µM) | <0.063 | <0.063 | 1 (≈ 1.12 µM) | <0.063
CCC1OC(=O)C(C)C(=O)C(C)C(OC2OC(C)CC(N(C)C)C2O)C(C)(OC)CC(C)C(=O)C(C)C2N(C3CN(Cc4c(Cl)cnc5ccccc45)C3)C(=O)OC12C (stereo not drawn) [Example 1.107, 3-descladinosyl-11,12-dideoxy-6-O-methyl-3-oxo-12,11-(oxycarbonyl-(1-(3-chloroquinoline-4-methyl)-azetidin-3-yl)-imino)erythromycin A] | 0.25 (≈ 0.296 µM) | <0.063 | <0.063 | 1 (≈ 1.19 µM) | <0.063
CCOc1cnc2ncccc2c1CN1CC(N2C(=O)OC3(C)C(CC)OC(=O)C(C)C(=O)C(C)C(OC4OC(C)CC(N(C)C)C4O)C(C)(OC)CC(C)C(=O)C(C)C23)C1 (stereo not drawn) [Example 1.108, 3-descladinosyl-11,12-dideoxy-6-O-methyl-3-oxo-12,11-(oxycarbonyl-(1-(3-ethoxy-1,8-naphthyridine-4-methyl)-azetidin-3-yl)-imino)-erythromycin A] | 0.5 (≈ 0.585 µM) | 0.125 (≈ 0.146 µM) | <0.063 | 1 (≈ 1.17 µM) | <0.063
CCC1OC(=O)C(C)C(=O)C(C)C(OC2OC(C)CC(N(C)C)C2O)C(C)(OC)CC(C)C(=O)C(C)C2N(C3CN(C(=O)c4cncc5ccccc45)C3)C(=O)OC12C (stereo not drawn) [Example 2.01] | >64.00 | 0.25 (≈ 0.304 µM) | 32 (≈ 38.9 µM) | 4 (≈ 4.86 µM) | <0.06

Source: patent US7462600B2, “Macrolides” (Pfizer Inc, priority 2004, dated 2008)
